Reference: US8624027B2, “Combination therapy for treating cancer and diagnostic assays for use therein” (AbbVie Inc., priority 2005, dated 2014)

How the values were obtained:
[1] = test system: NCI-H146 human small cell lung carcinoma cells; test: Cellular efficacy in human tumor cell line (MTS viability assay); assay type: cell-based; details: NCI-H146; 10% human serum, 48 hours; Table 1; read-out: NCI-H146 Cellular Efficacy EC50
Outline: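 Cells plated at 50,000/well in medium with 10% human serum in place of FBS. Treated with 2-fold serial dilutions from 10 μM to 0.020 μM, in duplicate, at least 3 separate runs. Viable cells measured by MTS after 48 h of compound exposure.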

[2] = test system: mantle cell lymphoma; test: Oral efficacy of EXAMPLE 1 in combination therapy, antitumorigenesis on mantle cell lymphoma; assay type: in vivo
[3] = test system: HCT116 tumors; test: HCT116 tumor xenograft in mice; assay type: in vivo
[4] = test system: HCT116 cells; test: Caspase-3 activity in polyploid cells (Caspase-GLO 3/7); assay type: cell-based, human; details: cells made polyploid with 200 nM AZD1152 (with or without washout); 1 μM ABT-263 for 4 hours; not in diploid cells
Protocol: (§1) Cell viability was determined 72 hours post-transfection. The red curve represents a synergistic combination. […] HCT116 cells (FIG. 10C-FIG. 10F) were treated for 24 hours with DMSO or 200 nM AZD1152. AZD1152 was then either left in the culture medium (AZD 1152) or washed out by replacing the medium with drug-free growth medium (AZD 1152 washout).
Caspase-3 activity was determined using the Caspase-GLO 3/7 Assay (Promega) in tandem with the CellTiter-GLO viability assay (Promega). Parallel experiments were performed, where in one experiment Caspase-3/7 activity was measured and in the other, cell viability was determined. As Caspase-3/7 activity on a per cell basis reflects both the specific activity of the Caspase-3 enzyme and the number of viable cells, the data are expressed as Caspase-3/7 activity divided by cell viability.

[5] = test system: BAX and BAK; test: BAX and BAK activation, immunoprecipitation of active conformers; assay type: cell-based, human; details: HCT116, D54MG, SW620, EJ1 cells made polyploid with 200 nM AZD1152 72 hours, then 1 μM ABT-263
Protocol: HCT116 cells (FIG. 11A) were treated with DMSO or 200 nM AZD1152 for 72 hours followed by 2 hours with 1 μM ABT-263. Conformationally active BAK or BAX was immunoprecipitated and detected by immunoblotting. D54MG and HCT116 cells (FIG. 11B) were treated DMSO or 200 nM AZD1152 for 72 hours prior to the addition of 1 μM ABT-263 for 4 hours. Conformationally active BAK or BAX was immunoprecipitated and detected by immunoblotting (top and middle panel). Cell lysates were also fractionated and Cytochrome C release into the cytosolic fraction was detected by immunoblotting. HCT116, SW620, and D54MG cells (FIG. 11C) were treated with DMSO (untreated) or 200 nM AZD1152 (AZD1152) for 72 hours and the expression of Bcl-2 network components were detected by immunoblotting (FIG. 11D-FIG. 11E) HCT116 cells were treated as in FIG. 11B. Endogenous Bcl-XL and Mcl-1 were immunoprecipitated, and the Bcl-2 network components in the immunecomplexes were detected by immunoblotting.
FIG. 14 BAK and BAX activation in tumor cell lines. D54MG, SW620, and EJ1 cells were treated as in FIG. 17B. Conformationally active BAK and BAX was immunoprecipitated and detected by immunoblotting.
Cell lysates were either prepared using a CHAPS lysis buffer (10 mM HEPES, pH 7.4, 150 mM NaCl, 1% CHAPS) or a cell extraction buffer containing 1% Triton X-100, 0.1% SDS, and 0.5% deoxycholate (Invitrogen). […]

[6] = test system: HCT116 cells; test: Cell viability of polyploid cells after ABT-263; assay type: cell-based, human; details: cells made polyploid with 200 nM AZD1152 (with or without washout); 1 μM ABT-263 for 24 hours; not in diploid cells
Protocol: as §1
Generally, cells were seeded at >90% viability (as determined by trypan blue exclusion) into 96-well plates overnight, treated with compounds or siRNAs for indicated duration, and the overall cell viability was determined by measuring luminescence.

EC50 [1]: 89.1 nM
SMILES: CC1(C)CCC(c2ccc(Cl)cc2)=C(CN2CCN(c3ccc(C(=O)NS(=O)(=O)c4ccc(N[C@H](CCN5CCOCC5)CSc5ccccc5)c(S(=O)(=O)C(F)(F)F)c4)cc3)CC2)C1 [Example 1, N-(4-(4-((2-(4-chlorophenyl)-5,5-dimethyl-1-cyclohex-1-en-1-yl)methyl)piperazin-1-yl)benzoyl)-4-(((1R)-3-(morpholin-4-yl)-1-((phenylsulfanyl)methyl)propyl)amino)-3-((trifluoromethyl)sulfonyl)benzenesulfonamide]
efficacy of cytotoxic agents during combination therapy ([2]; EXAMPLE 1 orally with rituximab with CHOP, VELCADE): synergistically enhanced efficacy
complete tumor regression ([2]; combination of EXAMPLE 1 and bortexomib): 10%
complete tumor regression ([2]; combination of EXAMPLE 1 and rituximab with CHOP): 90%
time to detection of active BAX conformer in tumors ([3]; ABT-263 75 mkd PO in tumors from mice pretreated 3 days with AZD1152, not in naive tumors): ≤ 4 h
persistence of tumor regression, combination regimen of AZD1152/ABT-263 ([3]; HCT116 colon carcinoma model): at least 2 weeks
antitumor efficacy, combination regimen of AZD1152/ABT-263 ([3]; HCT116 colon carcinoma model, tumors ~0.5 gram): rapid and more sustained tumor regression
Caspase-3 activity in polyploid cells [4]: induced Caspase-3 activity
BAX and BAK activation in polyploid cells [5]: rapidly and synergistically induced BAX and BAK activation
cell viability of polyploid cells [6]: loss of viability
